The values below are quoted from earlier work in paper PMC3693451 (Bioorganic & medicinal chemistry letters, 2011).

Data set [1] concerns the target CB receptors. To be noted: read-out: Ki at both CB receptors.
The subject of data set [2] is CB receptors.
Data set [3] deals with human CB1. To be noted: read-out: human CB1 Ki.
For data set [4], the system named is chronic neuropathic and inflammatory pain. Conditions: rat.
The test system of data set [5] is rat CB1, human CB1 and human CB2 receptors.
The conditions of data set [6]: 214 targets.

The structures appear in SMILES notation.

Consider `O=S(=O)(CCCC(F)(F)F)Oc1cccc(Oc2cccc3c2C[C@H](CO)C3)c1` [BAY 38–7271, (−)-(R)-3-(2-hydroxymethylindanyl-4-oxy)phenyl-4,4,4-trifluoro-1-sulfonate], for which the neuroprotective properties entry is on record as “pronounced neuroprotective properties”. In addition, the Ki in data set [1] is 0.46 to 1.85 nM. For the same molecule, in data set [2], the “agonist type at both CB receptors” value is “full agonist”.
Regarding `N#Cc1c(Oc2cccc(OS(=O)(=O)CCCC(F)(F)F)c2)cccc1C(F)(F)F` [BAY 59–3074], in data set [3], the Ki is 48.3 nM. The “effect in chronic neuropathic and inflammatory pain models” value in data set [4] is “pronounced antihyperalgesic and antiallodynic properties”. Besides, in data set [5], the “agonist properties in [35S]GTPγS binding assays” value is listed as “partial agonist”. Also, the “selectivity for CB receptors in target screen” value in data set [6] is recorded as “no significant interactions with other targets”.

Usually Ki stands for the equilibrium dissociation constant of an inhibitor or competing ligand from its target.
